Data on 5 compounds can be found in patent publication US10189824B2, “Pyrimidine-diamine dual HSP90/TRAP1 inhibitors” (CalAsia Pharmaceuticals, Inc., priority 2014, dated 2019).

The target of one assay is human Hsp90. Kind of assay: Fluorescence polarization (FP) displacement assay, GA-FITC, Hsp90. The format is binding. Conditions: FP displacement of GA-FITC, 50 nM Hsp90; for IC50: read-out: Biochemical efficacy HSP90 IC50; for Ki: read-out: Biochemical efficacy HSP90 Ki. The procedure:
(§1) Prior to transforming into BL21 (DE3) all the cloned vectors were sequence confirmed. Expressed proteins were purified using NTA resin (Life Technologies) followed by size exclusion chromatography using FPLC. The molecular mass of the purified proteins was confirmed by MALDI-TOF and assessed for purity by SDS-PAGE.
(§2) The assay conditions were 20 mM HEPES, pH-7.5, 50 mM KCl, 5 mM MgCl2, 20 mM sodium molybdate, 2 mM DTT, 0.01% NP40, 100 ug/ml BSA, 50 nM Hsp90 or 200 nM TRAP1, 1% DMSO, and 8 nM (for Hsp90) or 20 nM (for TRAP1) GA-FITC in the presence of increasing concentrations of test compound.

The target of another assay is T1, TRAP1 (Homo sapiens, UniProt Q12931).
T1 construct: Recombinant full-length human Hsp90 and 459 TRAP1 were cloned; 6His (TEV-cleavable) (N); made in house; host or cells: E. coli BL21 (DE3)
T1 sequence (Q12931 60-704): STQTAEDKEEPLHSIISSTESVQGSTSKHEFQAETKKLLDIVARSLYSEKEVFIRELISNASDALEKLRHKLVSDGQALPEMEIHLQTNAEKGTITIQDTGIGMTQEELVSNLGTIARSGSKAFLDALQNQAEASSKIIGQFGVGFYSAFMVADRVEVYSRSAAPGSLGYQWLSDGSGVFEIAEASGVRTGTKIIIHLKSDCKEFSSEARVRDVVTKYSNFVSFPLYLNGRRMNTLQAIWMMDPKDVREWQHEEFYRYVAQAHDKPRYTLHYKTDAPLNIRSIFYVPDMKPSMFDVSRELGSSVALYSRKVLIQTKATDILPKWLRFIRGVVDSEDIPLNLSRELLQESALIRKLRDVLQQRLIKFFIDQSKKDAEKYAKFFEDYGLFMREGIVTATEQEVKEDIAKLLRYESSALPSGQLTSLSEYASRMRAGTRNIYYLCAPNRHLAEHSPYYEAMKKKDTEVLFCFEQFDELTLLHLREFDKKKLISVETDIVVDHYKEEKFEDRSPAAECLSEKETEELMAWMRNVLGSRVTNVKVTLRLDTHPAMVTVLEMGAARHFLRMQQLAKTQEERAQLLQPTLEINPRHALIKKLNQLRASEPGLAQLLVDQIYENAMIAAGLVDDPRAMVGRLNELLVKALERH
Kind of assay: Fluorescence polarization (FP) displacement assay, GA-FITC, TRAP1. It is filed as binding. Conditions: FP displacement of GA-FITC, 200 nM TRAP1; for Ki: NA: Not active, read-out: Biochemical efficacy TRAP1 Ki; for IC50: read-out: Biochemical efficacy TRAP1 IC50. As to the method: as §1, §2

For a further assay, the system named is GBM10. Kind of assay: Cellular efficacy in Mayo Clinic GBM PDX cell line GBM10. The format is cell-based. As to the method: (§3) Short-term explant cultures from PDX models were seeded into 96-well Perfecta3D hanging drop plates to form a single spheroid in each well after 2 days. The spheroids were transferred to a round bottom 96 well plate by centrifugation and then incubated with graded concentrations of test compound (8 spheroids per compound concentration). Spheroid volumes were monitored every 6 hours over the course of 5 days using the IncuCyte system (Essen BioScience, MI, US) to provide a growth curve akin to a tumor regrowth assay.

Another assay deals with GBM39. The experiment in a line: Cellular efficacy in Mayo Clinic GBM PDX cell line GBM39. The format is cell-based. As to the method:
as §3

The test system of another assay is GBM43. The experiment in a line: Cellular efficacy in Mayo Clinic GBM PDX cell line GBM43. The format is cell-based. The procedure: as §3
For assay [1], the system named is Hsp90 client proteins (Akt1, ERK1) in MDA-MB-231 cell line. The experiment in a line: Cellular biomarker assays (Akt1, ERK1 ELISA) in MDA-MB-231. The format is cell-based. The settings on record: 48 hours. The procedure: (§4) Cellular biomarker assays: Cells were cultured in culture medium (RPMI-glutamax, 10% FCS, 100 units/ml penicillin, and 100 μg/ml streptomycin). Cells were passaged after lifting using 0.25% trypsin/EDTA, and 3×10^5 cells were seeded in each well of six well plates (total volume 2.5 mL/well). After the cells were cultured for 24 hours, increasing concentrations of Hsp90 inhibitor were added to wells in triplicate from DMSO-containing stock solutions and mixed by gently by stirring. Final DMSO concentration in all wells was 0.25%. The treated cells were then cultured for 48 hours prior to lysate preparation. The culture media was removed from wells, and the wells were washed twice with DPBS containing 1 mM CaCl2 and 0.5 mM MgCl2. […] The protein concentration in the cell lysates was determined using the BCA protein assay kit used according to the manufacturer's recommendations. […] Protein concentrations were determined using a micro-titer plate reader (Model # Synergy HT; BioTek Inc., Winooski, Vt.).
(§5) Akt1 and ERK1 levels in the cell lysates were measured using kits from R&D Systems used according to the manufacturer's recommendations. […] Akt1 and ERK1 levels were determined using a micro-titer plate reader (Model # Synergy HT; BioTek Inc., Winooski, Vt.) (FIGS. 5 and 8).

In assay [2] the test system is Hsp90 client proteins (Akt1, ERK1) in HEI193. The experiment in a line: Cellular biomarker assays (Akt1, ERK1 ELISA) in HEI193. The format is cell-based, human. The settings on record: 48 hour treatment. As to the method:
as §4, §5

The test system of assay [3] is Hsp90 client proteins (EGFR and Akt1) in Mayo Clinic GBM PDX cell lines. The experiment in a line: Cellular biomarker assays (EGFR, Akt1 ELISA) in Mayo Clinic GBM PDX cell lines. The format is cell-based. The settings on record: 48 hours; three cell lines.
Assay [4] relates to Mayo Clinic patient derived GBM tumor cells. The experiment in a line: Mayo Clinic patient derived GBM tumor cell proliferation. The format is cell-based. Conditions: 132 hours. The procedure: as §3
A further assay deals with HEI193 cells. The experiment in a line: TMRE assay, HEI193 cell mitochondrial integrity. The format is cell-based, human. Conditions: observed as early as 2 hours after treatment. The procedure:
Mitochondrial integrity was evaluated using Tetramethylrhodamine ethyl ester (TMRE) assay. A TMRE assay kit (Abcam) was used to evaluate Hsp90/TRAP1 inhibitor-induced changes in mitochondrial membrane potential. […] TMRE (200 nM) was then added to wells for 30 min and monitored for changes in fluorescence activity using a fluorescence plate reader (ex544/em 590) after washing the cells. Specific TMRE fluorescence was calculated by comparison to matched wells pretreated with the depolarizing proton ionophore carbonyl cyanide 4-(trifluoromethoxy)phenylhydrazone (FCCP) at 20 uM 10 min prior to addition of TMRE. For mitochondria assays, mitochondria was isolated using a kit from Thermoscientific and loaded with 0.1 mM TMRE. TMRE-loaded mitochondria (2 μg per well) were incubated with test compounds and monitored kinetically at 30° C. for changes in fluorescence using a flurorescence plate reader (ex 544/em 590) (FIGS. 6A, 9A and 12).

Molecules are shown by their SMILES.

For the compound `Cc1cnc(CN(CC2(c3ccc(F)cc3)CCOCC2)c2cc(Cl)nc(N)n2)c(C)c1Cl` [Compound B, 6-chloro-4-N-[(4-chloro-3,5-dimethylpyridin-2-yl)methyl]-4-N-{[4-(4-fluorophenyl)oxan-4-yl]methyl}pyrimidine-2,4-diamine], the figures for the IC50 at human Hsp90 and at TRAP1 were 33 nM and 85 nM, respectively. In addition, the figures for the Ki on human Hsp90 and at TRAP1 were 8 nM and 11 nM, respectively. Besides, the EC50 with GBM10 was 1200 nM; in the assay with GBM39, 620 nM; in the assay with GBM43, 870 nM. For the same compound, the “Effect on Akt1 and ERK1 levels, MDA-MB-231” value in assay [1] is given as “suppression of Hsp90 client proteins”. For the same compound, in assay [2], the “Effect on Akt1 and ERK1 levels, HEI193” value is “reduction of Hsp90 client proteins”. Besides, the “Effect on EGFR and Akt1 levels, GBM PDX cell lines” value in [3] is “suppression of Hsp90 client proteins”. Also, the “Effect on patient derived GBM tumor cell proliferation” value in assay [4] is on record as “inhibit”.
Regarding `COc1c(C)cnc(CN(CC2(c3cccc(C)n3)CCOCC2)c2cc(Cl)nc(N)n2)c1C` [Compound D, 6-chloro-4-N-[(4-methoxy-3,5-dimethylpyridin-2-yl)methyl]-4-N-{[4-(6-methylpyridin-2-yl)oxan-4-yl]methyl}pyrimidine-2,4-diamine], at human Hsp90, the IC50 was 54 nM and the Ki turned out to be 14 nM. Further, on TRAP1, the Ki is 68 nM and the IC50 was 543 nM.
Take `COc1ccnc(CN(CC2(c3ccc(F)cc3)CCOCC2)c2cc(Cl)nc(N)n2)c1C` [Compound C, 6-chloro-4-N-{[4-(4-fluorophenyl)oxan-4-yl]methyl}-4-N-[(4-methoxy-3-methylpyridin-2-yl)methyl]pyrimidine-2,4-diamine]: the IC50 was 87 nM at human Hsp90 and > 4000 nM at TRAP1. In addition, the Ki on human Hsp90 was found to be 22 nM.
In the case of `COc1c(C)cnc(CN(CC2(c3ccccn3)CCOCC2)c2cc(Cl)nc(N)n2)c1C` [Compound E, 6-chloro-4-N-[(4-methoxy-3,5-dimethylpyridin-2-yl)methyl]-4-N-{[4-(pyridin-2-yl)oxan-4-yl]methyl}pyrimidine-2,4-diamine], the IC50 on human Hsp90 was determined as 96 nM; on TRAP1 it was 1100 nM. Further, the Ki at human Hsp90 was 24 nM; on TRAP1, 138 nM.
As for `CC(C)c1cc(-c2n[nH]c(=O)n2-c2ccc3c(ccn3C)c2)c(O)cc1O` [Ganetespib, reference compound], the “Effect on TMRE fluorescence in HEI193 cells” value in the assay with HEI193 cells is reported as “significantly weaker response”.
